From patent US12578336B2, “ATP detection” (Promega Corporation, priority 2022, dated 2026) come the findings set out here.

The target of experiment [1] is T1, Pp-apyrase (Phlebotomus papatasi, UniProt Q9GTP7).
T1 construct: GST (glutathione S transferase); made in house; host or cells: E. coli
As to the kind of experiment: Inactivation of Pp-apyrase by EGTA in cell lysis/ATP detection reagent, tube format. The conditions noted are these: 10 mM EGTA in cell lysis/ATP detection reagent. It is filed as biochemical. How it is done: Luminescent signals were measured over time starting immediately after addition of the lysis/ATP detection reagent. Reactions were performed in microcentrifuge-style tubes and analyzed for luminescence on a single tube reading luminometer (GloMax® 20/20, Promega Corp.).
Reactions were performed in microcentrifuge-style tubes and analyzed for luminescence on a single tube reading luminometer (GloMax® 20/20, Promega Corp.).

Another experiment addresses T2, ENPP1 (Homo sapiens, UniProt P22413).
T2 sequence (P22413 1-925): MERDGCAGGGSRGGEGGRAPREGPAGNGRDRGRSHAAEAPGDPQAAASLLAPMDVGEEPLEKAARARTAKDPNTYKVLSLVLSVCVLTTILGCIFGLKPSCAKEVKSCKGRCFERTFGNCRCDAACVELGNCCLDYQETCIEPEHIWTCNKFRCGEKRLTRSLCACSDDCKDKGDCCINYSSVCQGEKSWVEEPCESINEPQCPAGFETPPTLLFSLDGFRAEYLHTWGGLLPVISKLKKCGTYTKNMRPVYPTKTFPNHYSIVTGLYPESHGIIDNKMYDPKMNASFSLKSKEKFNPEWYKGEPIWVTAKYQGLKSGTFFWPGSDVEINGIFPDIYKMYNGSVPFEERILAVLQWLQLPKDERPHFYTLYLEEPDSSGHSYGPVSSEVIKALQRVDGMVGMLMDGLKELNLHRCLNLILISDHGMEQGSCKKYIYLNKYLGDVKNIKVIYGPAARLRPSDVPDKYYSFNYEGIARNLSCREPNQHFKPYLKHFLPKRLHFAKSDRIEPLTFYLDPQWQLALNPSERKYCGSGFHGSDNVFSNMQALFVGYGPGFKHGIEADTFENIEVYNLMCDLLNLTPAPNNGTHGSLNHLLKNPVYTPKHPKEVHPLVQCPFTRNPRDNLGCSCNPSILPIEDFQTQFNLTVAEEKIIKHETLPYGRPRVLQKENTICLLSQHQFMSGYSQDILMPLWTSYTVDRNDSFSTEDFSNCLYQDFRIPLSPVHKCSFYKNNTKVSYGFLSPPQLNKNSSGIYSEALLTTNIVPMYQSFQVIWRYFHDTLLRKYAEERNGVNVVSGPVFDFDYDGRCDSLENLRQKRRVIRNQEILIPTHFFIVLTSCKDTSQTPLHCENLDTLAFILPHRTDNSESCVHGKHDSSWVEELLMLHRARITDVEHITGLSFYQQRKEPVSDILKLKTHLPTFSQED
Description: ENPP1 ATP degradation and its inhibition by chelators/inhibitor, Kinase-Glo. It is filed as biochemical. The procedure: ENPP1 converts ATP to AMP and pyrophosphate, is zinc-dependent, and is inactivated by EGTA, by the zinc chelator N,N,N′,N′-Tetrakis (2 pyridylmethyl) ethylenediamine (TPEN), and by certain small molecule inhibitors.
ENPP1 (100 ng/reaction) was incubated with 10 μM ATP and varying amounts of chelators (EGTA, TPEN) or an ENPP1 selective inhibitor called inhibitor C in a reaction buffer containing 50 mM Tris HCl, pH 7.5, 250 mM NaCl, 5 uM ZnCl2, 0.1 mg/ml BSA. The reactions were allowed to proceed for 60 minutes.
Background: Kinase-Glo reads ATP consumption through a luciferase reaction.

The test system of experiment [2] is St-apyrase (Ca2+/Mg2+ apyrase from potato). Description: Inhibition of St-apyrase by EGTA, luminescence over time. It is filed as biochemical, Solanum tuberosum. As to conditions: same amount of EGTA; luminescence declined over time. An excerpt:
(§1) The Ca^2+/Mg^2+ apyrase from potato, Solanum tuberosum (St-apyrase), is the most commonly used apyrase for ATP elimination. However, its inactivation requires measures, such as high temperature or extreme pH treatment, which are incompatible with the simple cartridge design disclosed here. The need for an extended heating time for apyrase inactivation is also incompatible with the goal of rapid sample collection and analysis. […] Cl- and St-apyrase were compared for their capacity to remove extracellular ATP and to be inhibited by the Ca^2+-selective chelator EGTA. Mg^2+ is critical for luciferase activity so the Mg^2+-selective chelator EDTA was not tested. In the absence of EGTA, both enzymes eliminated ATP as indicated by a time-dependent decrease in luminescence (FIG. 3).

For a further experiment, the target named is T3, Cl-apyrase (Ca-apyrase) (Cimex lectularius, UniProt O96559).
T3 construct: His tag; made in house; host or cells: E. coli
As to the kind of experiment: Inhibition of Cl-apyrase by EGTA, luminescence over time. It is filed as biochemical. As to conditions: EGTA present; decline of luminescence over time.
From the text: as §1

For experiment [3], the target named is T1, Pp-apyrase. Description: Inhibition of Pp-apyrase by EGTA in cartridge format. The conditions noted are these: EGTA in lysis/ATP detection reagent, after an initial ATP elimination step. It is filed as biochemical. How it is done:
Apyrase from the sandfly Phlebotomus papatasi (Pp-apyrase) was also characterized for use in an exemplary cartridge format. […] Empty plastic cartridges were obtained from Empire Bio Diagnostics. […] 20 second exposures of ATP in swab tips were followed by immersion of the swab tips in the cartridge receptacle in the ATP detection/cell lysis formulation with 10 mM EGTA described for FIG. 6, and then insertion of the cartridge receptacle in a handheld luminometer (luminometer prototype by Empire Bio Diagnostics). […] A portion of the values shown above the vertical axis represent luminescent values too low to be visible as bars on the graph.

“Also recorded” adds a separate entry of the source.

T1 sequence (Q9GTP7 22-336 limits assumed): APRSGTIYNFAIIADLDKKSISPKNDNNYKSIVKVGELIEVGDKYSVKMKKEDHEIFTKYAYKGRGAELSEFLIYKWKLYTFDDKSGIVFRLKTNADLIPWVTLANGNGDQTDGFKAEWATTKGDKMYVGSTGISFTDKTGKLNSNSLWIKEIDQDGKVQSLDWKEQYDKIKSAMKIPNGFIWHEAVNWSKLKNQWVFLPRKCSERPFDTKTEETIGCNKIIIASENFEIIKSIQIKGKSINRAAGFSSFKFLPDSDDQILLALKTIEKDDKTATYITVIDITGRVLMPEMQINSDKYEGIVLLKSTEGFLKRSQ
T3 sequence (O96559 36-364 limits assumed): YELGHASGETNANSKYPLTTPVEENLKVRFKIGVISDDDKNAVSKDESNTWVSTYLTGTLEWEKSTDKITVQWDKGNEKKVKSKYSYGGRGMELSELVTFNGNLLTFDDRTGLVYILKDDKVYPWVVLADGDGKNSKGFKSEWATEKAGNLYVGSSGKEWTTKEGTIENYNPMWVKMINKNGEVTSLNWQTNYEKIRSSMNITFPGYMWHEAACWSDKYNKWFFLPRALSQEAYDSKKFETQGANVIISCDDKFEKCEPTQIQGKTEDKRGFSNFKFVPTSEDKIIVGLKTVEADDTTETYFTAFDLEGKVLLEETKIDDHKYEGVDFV

Turning to `O=C(O)CN(CCOCCOCCN(CC(=O)O)CC(=O)O)CC(=O)O` [EGTA], the “inactivation of Pp-apyrase (in words)” value at Pp-apyrase [1] is recorded as “effectively inactivated; also recorded: substantially inactivated”. The “inactivation of ENPP1 (in words)” value on ENPP1 was “inactivated”. The “St-apyrase inhibition in the presence of EGTA (in words)” value in experiment [2] was “only partially inhibited”. The “Cl-apyrase activity in the presence of EGTA (in words)” value on Cl-apyrase (Ca-apyrase) was “no Cl-apyrase activity was detected; also recorded: substantially inactivated”. At Pp-apyrase [3], the “inhibition of Pp-apyrase in cartridge format (in words)” value is reported as “effective”.
Take `c1ccc(CN(CCN(Cc2ccccn2)Cc2ccccn2)Cc2ccccn2)nc1` [TPEN, N,N,N′,N′-Tetrakis (2 pyridylmethyl) ethylenediamine]: at ENPP1, the “inactivation of ENPP1 (in words)” value is given as “inactivated”.

B1: ENPP1: zinc-dependent enzyme that converts ATP to AMP and pyrophosphate (protein, UniProt P22413 1-925, looked up)
Ectonucleotide …: MERDGCAGGGSRGGEGGRAPREGPAGNGRDRGRSHAAEAPGDPQAAASLLAPMDVGEEPLEKAARARTAKDPNTYKVLSLVLSVCVLTTILGCIFGLKPSCAKEVKSCKGRCFERTFGNCRCDAACVELGNCCLDYQETCIEPEHIWTCNKFRCGEKRLTRSLCACSDDCKDKGDCCINYSSVCQGEKSWVEEPCESINEPQCPAGFETPPTLLFSLDGFRAEYLHTWGGLLPVISKLKKCGTYTKNMRPVYPTKTFPNHYSIVTGLYPESHGIIDNKMYDPKMNASFSLKSKEKFNPEWYKGEPIWVTAKYQGLKSGTFFWPGSDVEINGIFPDIYKMYNGSVPFEERILAVLQWLQLPKDERPHFYTLYLEEPDSSGHSYGPVSSEVIKALQRVDGMVGMLMDGLKELNLHRCLNLILISDHGMEQGSCKKYIYLNKYLGDVKNIKVIYGPAARLRPSDVPDKYYSFNYEGIARNLSCREPNQHFKPYLKHFLPKRLHFAKSDRIEPLTFYLDPQWQLALNPSERKYCGSGFHGSDNVFSNMQALFVGYGPGFKHGIEADTFENIEVYNLMCDLLNLTPAPNNGTHGSLNHLLKNPVYTPKHPKEVHPLVQCPFTRNPRDNLGCSCNPSILPIEDFQTQFNLTVAEEKIIKHETLPYGRPRVLQKENTICLLSQHQFMSGYSQDILMPLWTSYTVDRNDSFSTEDFSNCLYQDFRIPLSPVHKCSFYKNNTKVSYGFLSPPQLNKNSSGIYSEALLTTNIVPMYQSFQVIWRYFHDTLLRKYAEERNGVNVVSGPVFDFDYDGRCDSLENLRQKRRVIRNQEILIPTHFFIVLTSCKDTSQTPLHCENLDTLAFILPHRTDNSESCVHGKHDSSWVEELLMLHRARITDVEHITGLSFYQQRKEPVSDILKLKTHLPTFSQED
Regarding B1, the “conditionally active ATP eliminating properties (in words)” value in the experiment with ENPP1 (ENPP1 100 ng/reaction, 10 μM ATP, 60 minutes, 5 uM ZnCl2) was “qualitatively demonstrated the conditionally active ATP eliminating properties”.
